One compound from patent publication US20210315992A1, “ADJUVANT EFFECT OF THE TLR1/2 AGONIST DIPROVOCIM SYNERGIZES WITH CHECKPOINT-INHIBITING ANTIBODIES TO ELIMINATE DISEASE” (The Board of Regents of the University of Texas System, priority 2018, published 2021) can be followed below.

SMILES strings stand for the structures.

This experiment concerns B16-OVA melanoma. In words: Tumor-infiltrating leukocyte analysis in B16-OVA tumors (flow cytometry). Format: in vivo, mouse. On the procedure:
A total of 2×10^5 B16-OVA cells in 100 μL PBS were injected s.c. into the flank of each mouse to establish tumors (n=6 mice per treatment). 10 mg/kg Diprovocim-1 or 2 mg/kg alum with OVA (100 μg) was injected i.m. into mice on day 3 after tumor inoculation. Mice received a booster shot seven days after the first immunization. On day 3, 6, 9, and 12 after tumor inoculation, mice were also injected i.p. with 200 μg anti-mPD-L1.
On day 14 after tumor inoculation, tumors were harvested, minced and filtered through a 40-μm strainer to obtain single-cell suspensions. Red blood cells were lysed with RBC lysis buffer (Sigma). After pelleting, cells were stained with a mixture of antibodies for 45 minutes, including anti-mouse CD45.2-PE or CD45.2-APC (BioLegend), anti-mouse CD3-FITC (BD Biosciences), anti-mouse CD4-BV786 (BD Biosciences), anti-mouse CD8-BV510 (BioLegend), anti-mouse CD44-PE-CF594 (BioLegend), APC-conjugated H-2Kb/OVA (SIINFEKL; SEQ ID NO: XX) tetramer (Baylor College of Medicine), anti-mouse F4/80-PE (Tonbo Bioscience), anti-mouse CD11b-BV605 (BioLegend), anti-CD11c-BV711 (BD Biosciences), anti-NK1.1-BV650 (BD Biosciences). Then, the cells were washed twice with PBS. Stained cells were analyzed with an LSRII instrument (BD Biosciences) and the flow cytometry data were analyzed using FlowJo software.
(A flow cytometer gives signals particle by particle.)

For `O=C(N[C@H]1C[C@@H]1c1ccccc1)[C@@H]1CN(C(=O)c2ccc(C(=O)N3C[C@@H](C(=O)N[C@H]4C[C@@H]4c4ccccc4)[C@H](C(=O)N[C@H]4C[C@@H]4c4ccccc4)C3)cc2)C[C@H]1C(=O)N[C@H]1C[C@@H]1c1ccccc1` [Diprovocim-1, (3S,3'S,4S,4'S)-1,1′-Terephthaloylbis(N^3,N^4-bis((1S,2R)-2-phenylcyclo-propyl)pyrrolidine-3,4-dicarboxamide)], under “day 14, immunization day 3 and 10, plus anti-PD-L1”, the “frequency of leukocytes (TILs) in tumors compared to vehicle+OVA” value was “significantly increased”. For the same compound, under “day 14, vs vehicle+OVA”, the “frequency of NK cells in tumors” value is given as “increased”; the “frequency of OVA-specific CD8 T cells in tumors” value is listed as “increased”; the “frequency of total and activated (CD44high) CD4 T cells in tumors” value was “increased”; the “frequency of total and activated (CD44high) CD8 T cells in tumors” value was “increased”.
